From PubChem BioAssay AID330 (DTP/NCI, 2004) come the findings set out here.

“And” between values parts separate entries of the source, which are not always exact repeats. Identical values can stand only once. Toxic doses and inconclusive results are not listed.

The subject of the assay is P388 leukemia ip, CD2F1 mice, survival T/C. The assay can be described thus: NCI In Vivo Anticancer Drug Screen. Data for tumor model P388 Leukemia (intraperitoneal) in CD2F1 (CDF1) mice. The note with it: endpoint: median survival time, higher = longer survival. Put shortly: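 Mice carrying the transplanted tumor received test compound or vehicle. Survival was recorded in each group, and the value is the treated-group measurement divided by that of the vehicle-treated control group.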

[1] abbreviates: dose: 50.0 mg/kg/injection, schedule: Q01DX005 (ip), vehicle: Klucel (hydroxypropylcellulose) (HPC).
The mark [2] stands for this setting: dose: 50.0 mg/kg/injection, schedule: Q01DX009 (ip), vehicle: saline with Tween-80.

For `COc1ccc(CSC(=S)Nc2cc(C)c(C)cc2Br)cc1`, the T/C runs as follows: (dose: 50.0 mg/kg/injection, schedule: Q01DX009 (ip), vehicle: suspension in saline) 100 % of control; (dose: 100.0 mg/kg/injection, schedule: Q01DX009 (ip), vehicle: suspension in saline) 97 % of control; (dose: 200.0 mg/kg/injection, schedule: Q01DX009 (ip), vehicle: suspension in saline) 93 % of control.
Regarding `Cn1c(CCCC(=O)O)nc2cc(N(CCCl)CCCl)ccc21`, the T/C is 154 % of control (dose: 5.0 mg/kg/injection, schedule: Q01DX009 (ip), vehicle: saline sonified); 150 % of control (dose: 9.9 mg/kg/injection, schedule: Q04DX003 (ip), vehicle: saline with Tween-80); 168 % of control (dose: 10.0 mg/kg/injection, schedule: Q01DX009 (ip), vehicle: saline sonified); 163 % of control (dose: 22.5 mg/kg/injection, schedule: Q04DX003 (ip), vehicle: saline with Tween-80).
Turning to `Cn1cc(C(=O)O)c(=O)c2ccc(/C=C/c3ccc([N+](=O)[O-])o3)nc21`, the T/C (dose: 3.12 mg/kg/injection, schedule: Q01DX009 (ip), vehicle: saline) was 92 % of control; the T/C (dose: 6.25 mg/kg/injection, schedule: Q01DX009 (ip), vehicle: saline) was 97 % of control; the T/C (dose: 12.5 mg/kg/injection, schedule: Q01DX009 (ip), vehicle: saline) is 111 % of control; the T/C (dose: 25.0 mg/kg/injection, schedule: Q01DX009 (ip), vehicle: saline) was 103 % of control.
`CCCCCCCCCCCN(CCCCCCCCCCC)CC(O)c1cc2c(c3ccccc13)CCCC2` (stereo not given): the T/C is, setting by setting: under setting [1], 98 % of control; (dose: 100.0 mg/kg/injection, schedule: Q01DX005 (ip), vehicle: Klucel (hydroxypropylcellulose) (HPC)) 100 % of control; (dose: 200.0 mg/kg/injection, schedule: Q01DX005 (ip), vehicle: Klucel (hydroxypropylcellulose) (HPC)) 96 % of control.
On to `CCOC(=O)CN1CCC(C(O)c2cc3ccccc3[nH]2)CC1` (stereo not given), for which the T/C was 106 % of control (dose: 100.0 mg/kg/injection, schedule: Q01DX001 (ip), vehicle: saline); 110 % of control (dose: 200.0 mg/kg/injection, schedule: Q01DX001 (ip), vehicle: saline); 109 % of control (dose: 400.0 mg/kg/injection, schedule: Q01DX001 (ip), vehicle: saline).
Consider `CCOC(=O)c1c(Cl)c(-c2ccccc2)c(=O)n2c1[nH]c1ccccc12`, for which the T/C was 100 % of control (dose: 100.0 mg/kg/injection, schedule: Q01DX001 (ip), vehicle: saline with Tween-80); 101 % of control (dose: 200.0 mg/kg/injection, schedule: Q01DX001 (ip), vehicle: saline with Tween-80); 102 % of control (dose: 400.0 mg/kg/injection, schedule: Q01DX001 (ip), vehicle: saline with Tween-80).
Consider `C[CH2][Sn]1([CH2]C)[O]C2C(O)OC(CO)C(O)C2[O]1` (stereo not given), for which the T/C was 107 % of control and 120 % of control (dose: 1.56 mg/kg/injection, schedule: Q04DX003 (ip), vehicle: saline); 107 % of control and 120 % of control (dose: 3.12 mg/kg/injection, schedule: Q04DX003 (ip), vehicle: saline); 114 % of control (dose: 6.25 mg/kg/injection, schedule: Q04DX003 (ip), vehicle: saline); 116 % of control (dose: 12.5 mg/kg/injection, schedule: Q04DX003 (ip), vehicle: saline).
With `COC1/C=C/OC2(C)Oc3c(C)c(O)c4c(c3C2=O)C(=O)C=C(NC(=O)/C(C)=C\C=C\C(C)C2OC(C)(C)OC(C2C)C(C)C(OC(C)=O)C1C)C4=O` (stereo not given), the T/C runs as follows: under setting [2], 106 % of control; (dose: 100.0 mg/kg/injection, schedule: Q01DX009 (ip), vehicle: saline with Tween-80) 113 % of control; (dose: 200.0 mg/kg/injection, schedule: Q01DX009 (ip), vehicle: saline with Tween-80) 117 % of control.
For the molecule `O=C1OC(c2ccccc2)=N/C1=C/c1c(Cl)n(-c2ccccc2)c2ccccc12`, the T/C is 96 % of control (dose: 100.0 mg/kg/injection, schedule: Q01DX001 (ip), vehicle: Klucel (hydroxypropylcellulose) (HPC)); 94 % of control (dose: 200.0 mg/kg/injection, schedule: Q01DX001 (ip), vehicle: Klucel (hydroxypropylcellulose) (HPC)); 93 % of control (dose: 400.0 mg/kg/injection, schedule: Q01DX001 (ip), vehicle: Klucel (hydroxypropylcellulose) (HPC)).
Turning to `OC(CC1CCCCN1)c1cc2c(Cl)cc(Cl)cc2c2cc(C(F)(F)F)ccc12` (stereo not given), the T/C is 95 % of control (dose: 12.5 mg/kg/injection, schedule: Q01DX009 (ip), vehicle: saline with Tween-80); 104 % of control (dose: 25.0 mg/kg/injection, schedule: Q01DX009 (ip), vehicle: saline with Tween-80); 101 % of control under setting [2].
With `CC(C)[C@](O)(C(=O)OCC1CC[N+]2([O-])CC[C@@H](O)C12)[C@H](C)O` (stereo not given in full), the T/C by setting is: (dose: 187.5 mg/kg/injection, schedule: Q01DX009 (ip), vehicle: saline) 94 % of control; (dose: 375.0 mg/kg/injection, schedule: Q01DX009 (ip), vehicle: saline) 106 % of control; (dose: 750.0 mg/kg/injection, schedule: Q01DX009 (ip), vehicle: saline) 95 % of control; (dose: 1500.0 mg/kg/injection, schedule: Q01DX009 (ip), vehicle: saline) 106 % of control.
As to `C#Cc1cccc(N=Cc2cc(Cl)cc(Br)c2O)c1`, the T/C reads like this: (dose: 50.0 mg/kg/injection, schedule: Q01DX005 (ip), vehicle: saline with Tween-80) 105 % of control; (dose: 100.0 mg/kg/injection, schedule: Q01DX005 (ip), vehicle: saline with Tween-80) 102 % of control; (dose: 200.0 mg/kg/injection, schedule: Q01DX005 (ip), vehicle: saline with Tween-80) 107 % of control.
For `CCN(CCCNc1cc(OC)cc2cccnc12)C(C)C`, the T/C (dose: 3.12 mg/kg/injection, schedule: Q01DX005 (ip), vehicle: saline) was 98 % of control; the T/C (dose: 6.25 mg/kg/injection, schedule: Q01DX005 (ip), vehicle: saline) is 92 % of control; the T/C (dose: 12.5 mg/kg/injection, schedule: Q01DX005 (ip), vehicle: saline) was 107 % of control.
As to `C=C1C[C@]23C[C@@]1(O)CC[C@H]2[C@]12C=C[C@H](O1)C(C(=O)OCC)=C2[C@@H]3O`, the T/C is, setting by setting: (dose: 60.0 mg/kg/injection, schedule: Q01DX005 (ip), vehicle: Klucel (hydroxypropylcellulose) (HPC)) 108 % of control; (dose: 120.0 mg/kg/injection, schedule: Q01DX005 (ip), vehicle: Klucel (hydroxypropylcellulose) (HPC)) 115 % of control; (dose: 240.0 mg/kg/injection, schedule: Q01DX005 (ip), vehicle: Klucel (hydroxypropylcellulose) (HPC)) 120 % of control.
For the molecule `C[C-]=NCCCl.C[C-]=O.[C-]#[O+].[C-]#[O+].[C-]#[O+].[C-]#[O+].[Re]`, the T/C runs as follows: (dose: 12.5 mg/kg/injection, schedule: Q01DX005 (ip), vehicle: Klucel (hydroxypropylcellulose) (HPC)) 102 % of control; (dose: 25.0 mg/kg/injection, schedule: Q01DX005 (ip), vehicle: Klucel (hydroxypropylcellulose) (HPC)) 89 % of control; under setting [1], 93 % of control and 98 % of control.
With `CCCCCCCCCCCCCCCCC1=C(C(=O)OC)NC(N)=NC1O` (stereo not given), the T/C was 103 % of control (dose: 7.5 mg/kg/injection, schedule: Q01DX005 (ip), vehicle: saline with Tween-80); 100 % of control (dose: 15.0 mg/kg/injection, schedule: Q01DX005 (ip), vehicle: saline with Tween-80); 102 % of control (dose: 30.0 mg/kg/injection, schedule: Q01DX005 (ip), vehicle: saline with Tween-80); 103 % of control (dose: 60.0 mg/kg/injection, schedule: Q01DX005 (ip), vehicle: saline with Tween-80); 103 % of control (dose: 120.0 mg/kg/injection, schedule: Q01DX005 (ip), vehicle: saline with Tween-80); 106 % of control (dose: 600.0 mg/kg/injection, schedule: Q01DX005 (ip), vehicle: saline with Tween-80).
